Laboratory results published in paper PMC11109052, “Metabolism characterization and toxicity of N-hydap, a marine candidate drug for lung cancer therapy by LC–MS method” (Natural Products and Bioprospecting, 2024).

Experiments:
[1] = Metabolic stability in HLMs, UGT reaction (glucuronidation); type: in vitro ADME, human; conditions: human, human liver microsomes (UGT reaction), pH 7.4, HLMs, UGT reaction
Description: (§1) Various microsomes including HLMs, HKMs, HIMs, RLMs, RKMs, MLMs and MKMs were involved in CYP and UGT reactions of N-hydap. A typical CYP incubation mixture included 0.5 mg/mL microsomes protein, 3.3 mM glucose-6-phosphate, 3.3 mM MgCl2, 0.4 U/mL glucose-6-phosphate dehydrogenase, and N-hydap (1, 2.5, or 10 μM) in the 50 mM potassium phosphate buffer (KPI, pH 7.4). The incubation mixture was preincubated at 37 °C for 5 min, and the reaction was started by adding NADP to form a NADPH-regenerating system. Simultaneously, the classic UGT reaction system consisted of 50 mM KPI, 5 mM MgCl2, 0.5 mg/mL microsomes, 0.125 mg/mL alamethicin, and 5.25 mg/mL saccharolactone. The reaction was initiated after supplying UDPGA. The CYP and UGT mixtures were incubated at 37 °C in a shaking water bath (80 rpm) for 1.5 h to enhance metabolite formation. To terminate the reaction, an ice-cold solution of Tes (50 ng/mL, dissolved in methanol and used as an internal standard) was added to half of the mixture volume. The mixture was vortexed for 30 s and then centrifuged at 13,000 rpm for 15 min to eliminate any precipitated protein. The resulting supernatant was transferred to autosampler vials, and 5 μL was injected into the LC–MS system. All reactions were conducted in triplicate.
(§2) The identical concentration of HLMs was utilized for both the CYP reaction and UGT reaction. At predetermined time intervals of 0, 15, 30, and 60 min, 100 µL samples were taken from the reaction volumes. To halt the reaction, 50 µL of 50 ng/mL Tes was added. Samples were analyzed using LC–MS to compare the remaining level of N-hydap between the CYP reaction and UGT reaction. T1/2 and CLint (in vivo) (mL/min/kg) were calculated as reported previously:
(§3) T1/2=0.693/k, where k represents the slope of the line derived from plotting the natural logarithm of the percentage (Ln %) of N-hydap remaining in the reaction mixture against the incubation time (minutes).
(§4) CLintinvivo=0.693/invitroT1/2×mLincubation/mgmicrosomes×45mgmicrosomes/gliver×20gliver/kgbodyweight.

HLMs (UGT reaction) = assay: as above; type: in vitro ADME, human; conditions: for percentage of N-hydap remaining: HLMs, glucuronidation reaction
Description: as §1, §2, §3, §4

Ugt1a1 = assay: Real-time PCR mRNA level after 7 days gavage: Ugt1a1; type: in vivo, mice; parameters: key to UGT1A1 mNA expression: ↑: up-regulation; ↓: down-regulation; –: no change
Description: Mice were randomly divided into four groups, with eight animals in each group. The mice received oral pretreatment with N-hydap for 7 days at doses of 2, 5, and 10 mg/kg/day, which were considered as the low dose, medium dose, and high dose, respectively. Correspondingly, the control group received PBS. On the 8th day, the liver and kidneys were removed, and organs from eight mice per group were combined to prepare MLMs and MKMs using the detailed procedures above. Subsequently, we determined the activity of CYP and UGT enzymes by specific substrate metabolized with MLMs (0.5 mg/mL) and MKMs (0.2 mg/mL) in vitro. Specifically, the following selective substrates were used for the respective enzymes: PH (1 μM) for CYP1A2, DIC (1 μM) for CYP2C9, MP (90 μM) for CYP2C19, DM (1 μM) for CYP2D6, CZX (10 μM) for CYP2E1, Tes (1 μM) for CYP3A4, SN38 (1 μM) for UGT1A1, CACD (100 μM) for UGT1A3, Sero (20 μM) for UGT1A6, and Prop (1 μM) for UGT1A9. All substrates were dissolved in methanol or DMSO. The incubation procedure was carried out as mentioned above, and the reaction was terminated with VER (20 ng/mL) in ESI+ mode and CLP (200 ng/mL) in ESI− mode. In the ex vivo experiments, the activity of enzymes was measured by quantifying the production of various metabolites (nM/mg protein/min). The metabolites and their corresponding enzymes are as follows: APAP from PH, 4-OH-DIC from DIC, 4-OH-MP from MP, DXO from DM, 6-OH-CZX from CZX, 6-OH-Tes from Tes, SN38-G from SN38, CACD-G from CACD, Sero-G from Sero, Prop-G from Prop. The measurements were performed using multiple reaction monitoring (MRM) transitions, which are specific mass spectrometry transitions used for quantification. […]
Total RNA from liver and kidney samples taken after 7 days of N-hydap gavage was extracted using the Animal Total RNA Isolation Kit (Foregene, Chengdu, Sichuan, China) following the manufacturer’s instructions. The concentrations of total RNA were determined by a nucleic acid concentration tester at 260/280 nm. […]

CYP3A4 = assay: DME activity ex vivo in MLMs and MKMs: CYP3A4 (6-OH-Tes from Tes); parameters: species or system mice; key to CYP3A4 Enzymatic activity: ↑: up-regulation; ↓: down-regulation; –: no change
Description: Mice were randomly divided into four groups, with eight animals in each group. The mice received oral pretreatment with N-hydap for 7 days at doses of 2, 5, and 10 mg/kg/day, which were considered as the low dose, medium dose, and high dose, respectively. Correspondingly, the control group received PBS. On the 8th day, the liver and kidneys were removed, and organs from eight mice per group were combined to prepare MLMs and MKMs using the detailed procedures above. Subsequently, we determined the activity of CYP and UGT enzymes by specific substrate metabolized with MLMs (0.5 mg/mL) and MKMs (0.2 mg/mL) in vitro. Specifically, the following selective substrates were used for the respective enzymes: PH (1 μM) for CYP1A2, DIC (1 μM) for CYP2C9, MP (90 μM) for CYP2C19, DM (1 μM) for CYP2D6, CZX (10 μM) for CYP2E1, Tes (1 μM) for CYP3A4, SN38 (1 μM) for UGT1A1, CACD (100 μM) for UGT1A3, Sero (20 μM) for UGT1A6, and Prop (1 μM) for UGT1A9. All substrates were dissolved in methanol or DMSO. The incubation procedure was carried out as mentioned above, and the reaction was terminated with VER (20 ng/mL) in ESI+ mode and CLP (200 ng/mL) in ESI− mode. In the ex vivo experiments, the activity of enzymes was measured by quantifying the production of various metabolites (nM/mg protein/min). The metabolites and their corresponding enzymes are as follows: APAP from PH, 4-OH-DIC from DIC, 4-OH-MP from MP, DXO from DM, 6-OH-CZX from CZX, 6-OH-Tes from Tes, SN38-G from SN38, CACD-G from CACD, Sero-G from Sero, Prop-G from Prop. The measurements were performed using multiple reaction monitoring (MRM) transitions, which are specific mass spectrometry transitions used for quantification. The optimized parameters for each metabolite, such as declustering potential and collision energy, were described in Supplementary Table 1. All experiments were conducted in triplicate, to ensure accuracy and reproducibility.

Stability in plasma = type: in vitro ADME
Description: The stability of the KPI solution was examined after storage at 4 °C for 24 h and incubation at 37 °C for 4 h, which was conducted using the QC samples at three concentrations (five samples for each concentration). Stability in plasma and tissue homogenate was assessed by testing samples stored at both 4 °C and room temperature for 24 h.

Compound: CC1CCC2C(C=CC(C)C2C(=O)c2c(O)c(C3(O)CCC(O)C4OC43)cn(O)c2=O)C1 (centres unmarked) [N-hydap, N-Hydroxyapiosporamide]
- half-life [1]: 2.16 h
- CLint scaled ([1]; extrapolated from in vitro T1/2, read-out: CLint (in vivo)): 48.2 mL/min/kg
- percentage of N-hydap remaining (HLMs (UGT reaction); 15 min): 47.84%
- percentage of N-hydap remaining (HLMs (UGT reaction); 30 min): 40.44%
- UGT catelyzed, experimental results (HLMs (UGT reaction); Table 4 experimental column): Yes
- Phase II metabolism, experimental results (HLMs (UGT reaction); Table 4 experimental column, microsomes): Glucuronidation
- eliminated by UGTs (HLMs (UGT reaction); various microsomes, after 1 h): ~70%
- UGT1A1 mNA expression (Ugt1a1; Kidney): ↓
- UGT1A1 mNA expression (Ugt1a1; Liver): –
- mRNA levels of Ugt1a1 (Ugt1a1; mice, 2, 5, 10 mg/kg p.o. 7 days, kidneys): slight reduction
- CYP3A4 Enzymatic activity (CYP3A4; Kidney): ↑
- CYP3A4 Enzymatic activity (CYP3A4; Liver): ↑
- elevation of formation rate of 6-OH-Tes (CYP3A4; MLMs and MKMs, range stated jointly for APAP, SN38-G, 6-OH-Tes and CDCA-G): 12%-331%
- CYP3A4 inhibitor, experimental results (CYP3A4; Table 4 experimental column): No
- stability, Accuracy (Bias, %) (Stability in plasma; 200 nM, 4℃ for 24h): 113.9%
- stability, Accuracy (Bias, %) (Stability in plasma; 200 nM, room temperature for 24h): 101.9%
- stability, Accuracy (Bias, %) (Stability in plasma; 600 nM, 4℃ for 24h): 87.98%
- stability, Accuracy (Bias, %) (Stability in plasma; 600 nM, room temperature for 24h): 105.23%
- stability, Accuracy (Bias, %) (Stability in plasma; 2500 nM, 4℃ for 24h): 91.36%
- stability, Accuracy (Bias, %) (Stability in plasma; 2500 nM, room temperature for 24h): 108.04%
